Test results reported in patent publication US4436925A, “Addition compound of dipeptide derivative and amino acid derivative” (Toyo Soda Manufacturing Co., Ltd., priority 1977, dated 1984).
Where a SMILES comes first, the peptide text is derived from it.

Assays:
[1] = Solubility in water or diluted hydrochloric acid
[2] = times of that of sugar; cited from earlier work

solubility ([1]; in water at 25° C.) [g/100 g water]	SMILES	solubility ([1]; in diluted hydrochloric acid (10^-2 M) at 25° C.)	sweetness relative to sugar [2]
0.028	COC(=O)[C@H](Cc1ccccc1)NC(=O)[C@H](CC(=O)O)NC(=O)OCc1ccccc1	0.017 g/100 g diluted hydrochloric acid (10^-2 M)	–
–	COC(=O)[C@H](Cc1ccccc1)NC(=O)[C@@H](N)CC(=O)O [α-L-Aspartyl-L-phenylalanine methyl ester] (H-Asp-Phe-OMe)	–	about 200 times
